Laboratory results published in ChEMBL document CHEMBL3351424, “Reversible ketomethylene-based inhibitors of human neutrophil proteinase 3” (J Med Chem, 2014).
The source made the active and inactive calls. The rule behind the calls is not given here. Starred links: 1 amine or outer side, 2 acyl side, 3 side chain; linkers in the order of their positions; H or OH if unused. Non-standard residues stand in square brackets, D forms with d. Residues, ends and D or L forms follow the SMILES beside them. *: point of attachment. EDDnp = O=[N+]([O-])c1ccc(NCCN*)c([N+](=O)[O-])c1; X1 = CCC[C@H](N[*:1])C(=O)C[C@@H](C)C(=O)[*:2]; 2Abz = Nc1ccccc1C(=O)O

How the values were obtained:
[1] = target: T1, Neutrophil elastase (Homo sapiens) (UniProt P08246); assay: Inhibition of human NE using MeOSuc-AAPV-AMC as substrate after 30 mins by fluorescence assay
T1 sequence (whole entry): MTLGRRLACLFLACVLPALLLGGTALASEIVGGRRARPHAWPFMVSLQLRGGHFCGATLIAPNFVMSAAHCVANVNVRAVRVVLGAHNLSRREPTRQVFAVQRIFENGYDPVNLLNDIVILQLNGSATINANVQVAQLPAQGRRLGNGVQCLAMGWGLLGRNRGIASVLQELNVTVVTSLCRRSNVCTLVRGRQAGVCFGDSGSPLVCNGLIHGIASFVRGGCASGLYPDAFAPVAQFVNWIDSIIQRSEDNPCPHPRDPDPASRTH

[2] = target: T1, Neutrophil elastase (Homo sapiens); assay: Inhibition of human NE using MeOSuc-AAPV-AMC as substrate at 6 uM after 30 mins by fluorescence assay
[3] = target: T2, Myeloblastin (Homo sapiens) (UniProt P24158); assay: Inhibition of human PR3 using N-EY-FRET as substrate at 6 uM after 20 mins by fluorescence assay
T2 sequence (whole entry): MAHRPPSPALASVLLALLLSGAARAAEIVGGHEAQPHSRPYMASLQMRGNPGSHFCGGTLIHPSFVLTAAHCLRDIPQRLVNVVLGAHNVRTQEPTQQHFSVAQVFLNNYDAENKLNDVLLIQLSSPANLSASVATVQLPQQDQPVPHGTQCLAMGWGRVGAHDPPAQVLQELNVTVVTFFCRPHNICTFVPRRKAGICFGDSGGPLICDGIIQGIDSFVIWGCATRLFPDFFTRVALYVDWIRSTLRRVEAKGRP

Myeloblastin = target: T3, Myeloblastin (Homo sapiens, UniProt P24158); assay: Inhibition of human PR3 using D-DY-FRET as substrate after 30 mins by HPLC analysis
T3 sequence (P24158 whole entry): T2 sequence (whole entry)

| SMILES | inhibition [1] | inhibition [2] | inhibition [3] | IC50 (Myeloblastin) |
| --- | --- | --- | --- | --- |
| CCC[C@H](NC(=O)[C@H](CO)NC(=O)[C@H](C)NC(=O)[C@@H](NC(=O)c1ccccc1N)C(C)C)C(=O)C[C@@H](C)C(=O)N[C@@H](CCC(=O)O)C(=O)N[C@@H](CCCNC(=N)N)C(=O)N[C@@H](CCC(N)=O)C(=O)NCCNc1ccc([N+](=O)[O-])cc1[N+](=O)[O-] (H-[2Abz]VAS[X1]ERQ-EDDnp) | inactive |  |  |  |
| O=S(=O)(F)Cc1ccccc1 [PHENYLMETHYLSULFONYLFLUORIDE] |  | 20% | 20% | 19.2 µM |
